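Compound exposure: 48 hours, 5 concentrations, 96-well plates. GI50 is the concentration that inhibits growth by half.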 Calls of active or inactive are those of the source. Rule as the data show it: active = GI50 up to about 1.1 µM and inactive = higher.
Assays:
Assay in all cases: NCI-60 cell line screen, 48 h
786-0 = system: 786-0
A498 = system: A498
A549 = system: A549
ACHN = system: ACHN
BT-549 = system: BT-549
CAKI-1 = system: CAKI-1
CCRF-CEM = system: CCRF-CEM
DU-145 = system: DU-145
EKVX = system: EKVX
HCT-116 = system: HCT-116
HCT-15 = system: HCT-15
HL-60 = system: HL-60
HOP-62 = system: HOP-62
HOP-92 = system: HOP-92
HT-29 = system: HT-29
Hs-578T = system: Hs-578T
IGROV-1 = system: IGROV-1
K562 = system: K562
KM12 = system: KM12
LOX IMVI = system: LOX IMVI
M14 = system: M14
MDA-MB-231 = system: MDA-MB-231
MDA-MB-435 = system: MDA-MB-435
MDA-N = system: MDA-N
MOLT-4 = system: MOLT-4
Malme-3M = system: Malme-3M
NCI-H226 = system: NCI-H226
NCI-H23 = system: NCI-H23
NCI-H460 = system: NCI-H460
NCI-H522 = system: NCI-H522
NCI/ADR-RES = system: NCI/ADR-RES
OVCAR-3 = system: OVCAR-3
OVCAR-4 = system: OVCAR-4
OVCAR-5 = system: OVCAR-5
OVCAR-8 = system: OVCAR-8
PC-3 = system: PC-3
RXF 393 = system: RXF 393
SF-268 = system: SF-268
SF-295 = system: SF-295
SK-MEL-28 = system: SK-MEL-28
SK-MEL-2 = system: SK-MEL-2
SK-MEL-5 = system: SK-MEL-5
SN12C = system: SN12C
SNB-19 = system: SNB-19
SR = system: SR
SW-620 = system: SW-620
T47D = system: T47D
TK-10 = system: TK-10
U-251 = system: U-251
UACC-257 = system: UACC-257
UACC-62 = system: UACC-62
UO-31 = system: UO-31
COLO 205 = system: COLO 205
HCC 2998 = system: HCC 2998
MCF7 = system: MCF7
RPMI-8226 = system: RPMI-8226
SF-539 = system: SF-539
SK-OV-3 = system: SK-OV-3

**Q.** How did the GI50 (786-0) turn out when `c1ccc(SC(Sc2ccccc2)c2ccc3c(c2)OCO3)cc1` was run?
**A.** > 100 µM (inactive)

**Q.** And the GI50 (A498)?
**A.** 90.2 µM (inactive)

**Q.** And the GI50 (A549)?
**A.** > 100 µM (inactive)

**Q.** What about the GI50 (ACHN) of the same compound?
**A.** > 100 µM (inactive)

**Q.** And the GI50 (BT-549)?
**A.** > 100 µM (inactive)

**Q.** What about the GI50 (CAKI-1) of the same compound?
**A.** > 100 µM (inactive)

**Q.** And the GI50 (CCRF-CEM)?
**A.** > 100 µM (inactive)

**Q.** And the GI50 (DU-145)?
**A.** > 100 µM (inactive)

**Q.** What about the GI50 (EKVX) of the same compound?
**A.** 37.2 µM (inactive)

**Q.** And the GI50 (HCT-116)?
**A.** > 100 µM (inactive)

**Q.** And the GI50 (HCT-15)?
**A.** > 100 µM

**Q.** And the GI50 (HL-60)?
**A.** > 100 µM (inactive)

**Q.** And the GI50 (HOP-62)?
**A.** > 100 µM (inactive)

**Q.** What about the GI50 (HOP-92) of the same compound?
**A.** 16.3 µM (inactive)

**Q.** And the GI50 (HT-29)?
**A.** 65.2 µM (inactive)

**Q.** And the GI50 (Hs-578T)?
**A.** > 100 µM (inactive)

**Q.** What about the GI50 (IGROV-1) of the same compound?
**A.** > 100 µM (inactive)

**Q.** What about the GI50 (K562) of the same compound?
**A.** > 100 µM (inactive)

**Q.** And the GI50 (KM12)?
**A.** > 100 µM (inactive)

**Q.** What about the GI50 (LOX IMVI) of the same compound?
**A.** > 100 µM (inactive)

**Q.** What about the GI50 (M14) of the same compound?
**A.** > 100 µM (inactive)

**Q.** And the GI50 (MDA-MB-231)?
**A.** > 100 µM (inactive)

**Q.** What about the GI50 (MDA-MB-435) of the same compound?
**A.** > 100 µM (inactive)

**Q.** What about the GI50 (MDA-N) of the same compound?
**A.** 88.9 µM (inactive)

**Q.** What about the GI50 (MOLT-4) of the same compound?
**A.** 38.1 µM (inactive)

**Q.** And the GI50 (Malme-3M)?
**A.** > 100 µM (inactive)

**Q.** And the GI50 (NCI-H226)?
**A.** 23.6 µM (inactive)

**Q.** And the GI50 (NCI-H23)?
**A.** > 100 µM (inactive)

**Q.** And the GI50 (NCI-H460)?
**A.** > 100 µM (inactive)

**Q.** And the GI50 (NCI-H522)?
**A.** 85.9 µM (inactive)

**Q.** What about the GI50 (NCI/ADR-RES) of the same compound?
**A.** > 100 µM (inactive)

**Q.** What about the GI50 (OVCAR-3) of the same compound?
**A.** 60.3 µM (inactive)

**Q.** What about the GI50 (OVCAR-4) of the same compound?
**A.** > 100 µM (inactive)

**Q.** What about the GI50 (OVCAR-5) of the same compound?
**A.** > 100 µM (inactive)

**Q.** What about the GI50 (OVCAR-8) of the same compound?
**A.** > 100 µM (inactive)

**Q.** And the GI50 (PC-3)?
**A.** > 100 µM (inactive)

**Q.** What about the GI50 (RXF 393) of the same compound?
**A.** > 100 µM (inactive)

**Q.** And the GI50 (SF-268)?
**A.** 93.1 µM (inactive)

**Q.** And the GI50 (SF-295)?
**A.** > 100 µM (inactive)

**Q.** And the GI50 (SK-MEL-28)?
**A.** > 100 µM (inactive)

**Q.** And the GI50 (SK-MEL-2)?
**A.** > 100 µM (inactive)

**Q.** And the GI50 (SK-MEL-5)?
**A.** > 100 µM (inactive)

**Q.** What about the GI50 (SN12C) of the same compound?
**A.** > 100 µM (inactive)

**Q.** What about the GI50 (SNB-19) of the same compound?
**A.** > 100 µM (inactive)

**Q.** And the GI50 (SR)?
**A.** > 100 µM (inactive)

**Q.** And the GI50 (SW-620)?
**A.** > 100 µM (inactive)

**Q.** What about the GI50 (T47D) of the same compound?
**A.** > 100 µM (inactive)

**Q.** What about the GI50 (TK-10) of the same compound?
**A.** > 100 µM (inactive)

**Q.** What about the GI50 (U-251) of the same compound?
**A.** > 100 µM (inactive)

**Q.** What about the GI50 (UACC-257) of the same compound?
**A.** > 100 µM (inactive)

**Q.** And the GI50 (UACC-62)?
**A.** > 100 µM (inactive)

**Q.** What about the GI50 (UO-31) of the same compound?
**A.** > 100 µM (inactive)

**Q.** `Cc1ccc(OCC2CO2)c(Br)c1` (configuration not stated) was tested. Which GI50 (786-0) did it give?
**A.** 19.5 µM (inactive)

**Q.** And the GI50 (A498)?
**A.** 34.4 µM (inactive)

**Q.** And the GI50 (A549)?
**A.** 20.3 µM (inactive)

**Q.** And the GI50 (ACHN)?
**A.** 5.5 µM (inactive)

**Q.** And the GI50 (BT-549)?
**A.** < 0.01 µM (active)

**Q.** What about the GI50 (CAKI-1) of the same compound?
**A.** 33.7 µM (inactive)

**Q.** What about the GI50 (CCRF-CEM) of the same compound?
**A.** 27.9 µM (inactive)

**Q.** What about the GI50 (COLO 205) of the same compound?
**A.** 17.7 µM (inactive)

**Q.** And the GI50 (DU-145)?
**A.** 38.4 µM (inactive)

**Q.** And the GI50 (EKVX)?
**A.** 13.8 µM (inactive)

**Q.** And the GI50 (HCC 2998)?
**A.** 16 µM (inactive)

**Q.** And the GI50 (HCT-116)?
**A.** 16.1 µM (inactive)

**Q.** What about the GI50 (HCT-15) of the same compound?
**A.** 14 µM

**Q.** What about the GI50 (HL-60) of the same compound?
**A.** 30.1 µM (inactive)

**Q.** What about the GI50 (HOP-62) of the same compound?
**A.** 39.4 µM (inactive)

**Q.** And the GI50 (HOP-92)?
**A.** 14.7 µM (inactive)

**Q.** What about the GI50 (HT-29) of the same compound?
**A.** 12.7 µM (inactive)

**Q.** What about the GI50 (Hs-578T) of the same compound?
**A.** 28.5 µM (inactive)

**Q.** What about the GI50 (IGROV-1) of the same compound?
**A.** 15.5 µM (inactive)

**Q.** What about the GI50 (K562) of the same compound?
**A.** 22.3 µM (inactive)

**Q.** And the GI50 (KM12)?
**A.** 66.7 µM (inactive)

**Q.** And the GI50 (LOX IMVI)?
**A.** 12.1 µM (inactive)

**Q.** And the GI50 (M14)?
**A.** 34.1 µM (inactive)

**Q.** What about the GI50 (MCF7) of the same compound?
**A.** 14.7 µM (inactive)

**Q.** What about the GI50 (MDA-MB-231) of the same compound?
**A.** 21.9 µM (inactive)

**Q.** And the GI50 (MDA-MB-435)?
**A.** 18.7 µM (inactive)

**Q.** What about the GI50 (MDA-N) of the same compound?
**A.** 19.5 µM (inactive)

**Q.** And the GI50 (MOLT-4)?
**A.** 7.83 µM (inactive)

**Q.** And the GI50 (Malme-3M)?
**A.** 56.5 µM (inactive)

**Q.** And the GI50 (NCI-H226)?
**A.** 15.9 µM (inactive)

**Q.** And the GI50 (NCI-H23)?
**A.** 22.5 µM (inactive)

**Q.** And the GI50 (NCI-H460)?
**A.** 21.9 µM (inactive)

**Q.** What about the GI50 (NCI/ADR-RES) of the same compound?
**A.** 15.8 µM (inactive)

**Q.** What about the GI50 (OVCAR-3) of the same compound?
**A.** 25.1 µM (inactive)

**Q.** What about the GI50 (OVCAR-4) of the same compound?
**A.** 14.7 µM (inactive)

**Q.** What about the GI50 (OVCAR-5) of the same compound?
**A.** 17.5 µM (inactive)

**Q.** And the GI50 (OVCAR-8)?
**A.** 7.8 µM (inactive)

**Q.** And the GI50 (PC-3)?
**A.** 47.3 µM (inactive)

**Q.** What about the GI50 (RPMI-8226) of the same compound?
**A.** 25.1 µM (inactive)

**Q.** And the GI50 (RXF 393)?
**A.** 10.1 µM (inactive)

**Q.** What about the GI50 (SF-268) of the same compound?
**A.** 13.1 µM (inactive)

**Q.** And the GI50 (SF-295)?
**A.** 21 µM (inactive)

**Q.** What about the GI50 (SF-539) of the same compound?
**A.** 15 µM (inactive)

**Q.** And the GI50 (SK-MEL-28)?
**A.** 27.5 µM (inactive)

**Q.** And the GI50 (SK-MEL-5)?
**A.** 18.1 µM (inactive)

**Q.** What about the GI50 (SK-OV-3) of the same compound?
**A.** 19.1 µM (inactive)

**Q.** And the GI50 (SN12C)?
**A.** 18.6 µM (inactive)

**Q.** And the GI50 (SNB-19)?
**A.** 41.3 µM (inactive)

**Q.** And the GI50 (SW-620)?
**A.** 12.7 µM (inactive)

**Q.** What about the GI50 (T47D) of the same compound?
**A.** 63.1 µM (inactive)

**Q.** And the GI50 (TK-10)?
**A.** 30.3 µM (inactive)

**Q.** What about the GI50 (U-251) of the same compound?
**A.** 15.2 µM (inactive)

**Q.** And the GI50 (UACC-257)?
**A.** 37.8 µM (inactive)

**Q.** And the GI50 (UACC-62)?
**A.** 17.7 µM (inactive)

**Q.** What about the GI50 (UO-31) of the same compound?
**A.** 18.5 µM (inactive)

Source: ChEMBL document CHEMBL1201862, “PubChem BioAssay data set” (2004)
